According to patent US20250352654A1, “PHARMACEUTICAL AGENT CONJUGATES TO MODULATE MACROPHAGE AND INFLAMMATORY FUNCTIONS AND USES THEREOF” (REGENTS OF THE UNIVERSITY OF MINNESOTA, priority 2022, published 2025):
Read-outs that look alike come from different tables or passages of the source. Bridge positions count the residues as written; N and C are the ends. Square brackets hold non-standard residues; d marks the D form. Ends that are not written are not given here. FAM = fluorescein amidite (fluorescein); Ahx = NCCCCCC(=O)O

Columns and labels:
[1] = In vivo pharmacokinetics of PSL conjugates; conditions: male, C57BL/6, mouse, plasma, iv, healthy mice, 1 mg kg-1 equivalent dose of PSL
Protocol: FIG. 2U discloses mean plasma concentration-time curves of PSL following intravenous administration of free PSL, Cys-PSL and CRV-PSL with an equivalent PSL dosage at 1 mg kg^−1. All the animal experiments were performed in 3-4 mice per group. The data are presented as the mean±standard deviation (SD). Statistical significance was calculated using Student's t test. *P<0.05, **P<0.01, CRV-PSL vs free PSL group; #P<0.05, ##P<0.01, ###P<0.001 Cys-PSL vs free PSL group.
HPLC-MS/MS analysis was performed using the chromatographic system consisted of UltiMate™ 3000 RSLCnano System (Thermo Fisher Scientific) and a ZORBAX™ C18 column (5 μm, 150 mm 0.5 mm, Agilent, Santa Clara, CA). The mobile phase was a mixture of H2O/acetonitrile with a gradient elution (from 90:10 to 10:90 and return to 90:10, v/v) at a flow rate of 15 μl/min. The eluent was introduced directly into the electrospray source of a tandem quadrupole mass spectrometer (TSQ VANTAGE™, Thermo Fisher Scientific) that was operated in the positive mode. The spray voltage was set at 3000 V. The compounds were analyzed by multiple reaction monitoring (MRM) of the transitions of m/z (ESI+) 361.24→147.06 for PSL.
Healthy male C57BL/6 mice (8- to 9-weeks-old; body weight of 25-30 g) were deprived of food overnight with free access to water. […]
We first evaluated the plasma pharmacokinetics of CRV-PSL in healthy mice.

[2] = assay type: in vivo, mouse; conditions: for Thymus weight: mean; for Lymphocytes (count of total blood lymphocytes) / T cells (CD45+CD3+) count: normalized to the vehicle group
Protocol: (C and D) Flow-cytometry analysis of blood cell populations in mice with different treatment. The count of (C) blood lymphocytes and (D) T cells in mice receiving different treatment were normalized to the vehicle group. […] The weight of thymus was measured, and the blood was collected for flow cytometry 4 h after the third dose of treatment. All experiments were performed in 3-4 mice per group, and the experiment was repeated three times. Data shown are mean±SD. Student's t test was performed for statistical analysis. *p<0.05, **p<0.01, ***p<0.001.
The gating was started with choosing the live cells by plotting SSC-A vs. FSC-A. Single cells were then selected by plotting FSC-A vs. FSC-H for the live cells followed by subpopulation of CD45+ cells. The lymphocytes were selected by plotting CD45+ cells and SSC-A, which were then selected for T cells by CD3 staining. The tissues and the blood were collected 4 hours after the third dose of treatment. All experiments were performed in 3-4 mice per group and the experiment was repeated three times. The data are presented as the mean±standard deviation (SD). Statistical significance was calculated using Student's t test.
To identify subpopulations of myeloid cells, single cell suspensions were collected from the lung with a lung dissociation kit for mouse (Miltenyi Biotec, Auburn, CA) and other tissues, including blood and spleen, were collected for flow cytometry analysis. […] Flow cytometry analysis was performed on a BD Fortessa™ X-20 (BD Biosciences, East Rutherford, NJ). The data were analyzed with Flow JO™ software (Tree Star, San Carlos, CA).

[3] = tested on: 4T1 breast cancer tumor; test: Tumor accumulation of D-CRV and L-CRV after oral administration; assay type: in vivo, mouse; conditions: 4 hours, IF
Protocol: FAM-labeled L-CRV or D-CRV was orally administered to tumor-bearing mice.
To compare the in vivo distributions of the D-isoform of CRV (D-CRV) and the L-isoform of CRV (L-CRV), fluorescein (FAM) dye labeled D-CRV and L-CRV peptides were synthesized. 100 μL of peptide solution (5 mg/mL in PBS) was administered via oral gavage into mice bearing a 4T1 breast cancer tumor (for a description of how this mouse model is generated, see J Control Release 301:42-53, 2019) 4 hours before the tumors were collected. Peptide accumulation in the tumor was observed by immunofluorescence (IF) staining of FAM. We had previously shown that L-CRV homes to such tumors following intravenous injection. […] Additionally, (D)-CRV-DEX was first applied to RA mice model via subcutaneous administration with hydrogel. […] The pharmacokinetics (PK) and biodistribution at other time points will be further evaluated.

[4] = tested on: inflamed lung; test: CRV peptide homing in LPS-induced ALI mice (IHC/IF); assay type: in vivo, mouse; conditions: healthy (PBS) mice; FAM-labeled peptide i.v., 1 h; IHC and IF
Protocol: (A) Representative immunohistochemistry (IHC) images of targeting RXRB by CRV peptide in the lung of acute lung injury (ALI) mice. Control (PBS) or ALI (LPS-treated) mice were intravenously injected with FAM-labeled CRV or a control peptide (GGS) for 1 h homing, respectively. The lungs were collected for IHC analysis on whole-cell RXRB expression (left) and peptide amount (detected by anti-FITC antibody, right). (B) Quantification of FITC expression for FAM-labeled peptides in the lungs by IHC staining. (C) Representative immunofluorescence (IF) images of colocalization of rabbit anti-RXRB antibody with CD11b in PBS controls (top) and acute lung injury (ALI) mice (bottom). The lungs were collected for IF staining for the indicated markers after 6 h in vivo homing by intravenous injection of 25 mg of rabbit polyclonal RXRB antibodies in […] of PBS in mice. The mice receiving intratracheal injection of PBS served as healthy controls. All the animal experiments were performed in three mice per group. (D) Relative percentage of RXRB-positive cells in different tissues of ALI mice. […] The fluorescence intensity for CRV or GGS binding per cells was plotted in the histograms. […] (H) Quantification of RXRB in IHC sections from lungs of human subjects with ILD. […] FAM, carboxyfluorescein; FITC, fluorescein iso-thiocyanate; A.U., arbitrary units; MFI, mean fluorescence intensity; Neg, negative. […]

[5] = tested on: arthritic joints; test: CRV accumulation in joints of K/BxN serum-transfer arthritis mice (IHC); assay type: in vivo, mouse; conditions: FAM peptide i.v., 1 hour
Protocol: (B) The arthritic mice were injected intravenously with a control peptide (GGS, top) or CRV (bottom). The mice were sacrificed after 1 hour and joints were collected for IHC staining.
FIGS. 7B-7D illustrates In vivo CRV peptide distribution in arthritic mouse models. (B) Scheme of synthesis of 64Cu-DOTA-CRV. (C) Representative immunohistochemistry (IHC) images of peptide accumulation in the tissues of collagen-induced-arthritis (CIA) mice with anti-FITC antibody for FAM-labeled CRV and FAM-GGS, upon intravenous injection for 1 h, respectively. Scale bars: 100 μm. (D) Representative IHC images of CRV-peptide and a control peptide (GGS) accumulation in the ankle joints of K/B×N serum-transfer arthritic mice at 1 h post intravenous injection as detected by FAM signals with anti-FITC antibody. Scale bar: 200 μm for 10× magnification; 100 μm for 20× magnification. All the animal experiments were performed in 3 mice per group. DOTA, 1,4,7,10-tetraazacyclododocane tetraacetic acid; FAM, carboxyfluorescein; FITC, fluorescein isothiocyanate.
To study the accumulation of CRV in inflamed joints, 100 μl of fluorescein (FAM)-CRV peptide solution (1 mg/ml in PBS) and the control peptide, GGS (SEQ ID NO: 2), was injected intravenously into mice with K/B×N serum-transfer arthritis (for a description of this mouse model, see VetPathol 52(5):819-26, 2015). […]

[6] = 0.1 or 1 mg kg-1 PSL equivalent

C[C@]12C=CC(=O)C=C1CC[C@@H]1[C@@H]2[C@@H](O)C[C@@]2(C)[C@H]1CC[C@]2(O)C(=O)CO [Free PSL, prednisolone]
AUC(0-t) ([1]; mean (n = 3)): 41300 ng·h/mL
half-life ([1]; mean ± SD (n = 3)): 3.78 ± 0.5 h
Thymus weight ([2]; 0.1 mg kg-1 PSL equivalent i.v. every 2 days for 5 days): 36.3 mg
Lymphocytes (count of total blood lymphocytes) ([2]; 0.1 mg kg-1 PSL equivalent): 0.45 fold changes
T cells (CD45+CD3+) count ([2]; 0.1 mg kg-1 PSL equivalent): 0.47 fold changes
Thymus weight ([2]; 1 mg kg-1 PSL equivalent i.v. every 2 days for 5 days): 28.3 mg
Lymphocytes (count of total blood lymphocytes) ([2]; 1 mg kg-1 PSL equivalent): 0.27 fold changes
T cells (CD45+CD3+) count ([2]; 1 mg kg-1 PSL equivalent): 0.40 fold changes
apoptosis in the thymus and other organs (TUNEL) [2, 6]: increases the level of apoptosis mainly in the thymus
counts of total lymphocytes and T subsets (in words) [2, 6]: reduced the counts of total lymphocytes and T subsets
thymus weight (in words) ([2]; 0.1 or 1 mg kg-1 PSL equivalent i.v. every two days for five days): greatest reduction in thymus weight

D-CRV: D-isoform of CRV (SEQ ID NO: 52), fluorescein (FAM) dye labeled ([dC][dR][dV][dL][dR][dS]G[dS][dC]; disulfide 1-9 (inferred); also: FAM label, position not given here)
peptide accumulation in the tumor ([3]; FAM-labeled peptide, oral gavage 100 uL of 5 mg/mL): significant accumulation of CRV in the tumors
colocalization with CD11b in the tumor ([3]; oral gavage): colocalization with the myeloid cell marker CD11b in the tumor

GGS: control peptide <FAM>-<Ahx>-GGSGGSKG (SEQ ID NO: 2) ({FAM-Ahx}-GGSGGSKG)
peptide accumulation in the healthy lung [4]: little accumulation
peptide accumulation in arthritic joints [5]: few FAM signals were detected
